This note sets out measurements from patent publication US9796733B2, “Imidazo-pyrazine derivatives useful as soluble guanylate cyclase activators” (Merck Sharp & Dohme Corp., priority 2014, dated 2017).

Each structure is given as a SMILES string.

For this test, the target named is T1, sGC α1/β1 heterodimer (Homo sapiens, UniProt Q02108+Q02153).
T1 construct: expressed in transfected cells; host or cells: CHO-K1 (clone #7, CHO-K1/sGC)
T1 sequence (Q02108 1-690): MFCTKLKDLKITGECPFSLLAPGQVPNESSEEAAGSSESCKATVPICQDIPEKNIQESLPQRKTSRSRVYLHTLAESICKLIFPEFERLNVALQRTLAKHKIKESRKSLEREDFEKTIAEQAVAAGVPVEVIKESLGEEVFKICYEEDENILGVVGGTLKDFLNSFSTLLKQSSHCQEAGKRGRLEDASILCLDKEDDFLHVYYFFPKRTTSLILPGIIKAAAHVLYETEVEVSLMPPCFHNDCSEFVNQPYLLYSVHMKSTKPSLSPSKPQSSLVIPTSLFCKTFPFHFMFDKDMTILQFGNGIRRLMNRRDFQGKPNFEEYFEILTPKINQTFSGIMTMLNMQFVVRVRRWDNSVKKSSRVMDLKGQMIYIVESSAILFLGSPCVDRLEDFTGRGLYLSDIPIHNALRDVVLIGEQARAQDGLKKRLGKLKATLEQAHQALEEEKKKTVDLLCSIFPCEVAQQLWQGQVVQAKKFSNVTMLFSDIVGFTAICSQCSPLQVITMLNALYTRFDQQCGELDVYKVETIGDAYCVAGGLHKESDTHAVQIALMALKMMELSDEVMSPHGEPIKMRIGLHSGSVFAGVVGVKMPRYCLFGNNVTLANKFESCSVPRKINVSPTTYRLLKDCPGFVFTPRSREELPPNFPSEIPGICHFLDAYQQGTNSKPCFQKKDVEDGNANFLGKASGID
T1 sequence (Q02153 1-619): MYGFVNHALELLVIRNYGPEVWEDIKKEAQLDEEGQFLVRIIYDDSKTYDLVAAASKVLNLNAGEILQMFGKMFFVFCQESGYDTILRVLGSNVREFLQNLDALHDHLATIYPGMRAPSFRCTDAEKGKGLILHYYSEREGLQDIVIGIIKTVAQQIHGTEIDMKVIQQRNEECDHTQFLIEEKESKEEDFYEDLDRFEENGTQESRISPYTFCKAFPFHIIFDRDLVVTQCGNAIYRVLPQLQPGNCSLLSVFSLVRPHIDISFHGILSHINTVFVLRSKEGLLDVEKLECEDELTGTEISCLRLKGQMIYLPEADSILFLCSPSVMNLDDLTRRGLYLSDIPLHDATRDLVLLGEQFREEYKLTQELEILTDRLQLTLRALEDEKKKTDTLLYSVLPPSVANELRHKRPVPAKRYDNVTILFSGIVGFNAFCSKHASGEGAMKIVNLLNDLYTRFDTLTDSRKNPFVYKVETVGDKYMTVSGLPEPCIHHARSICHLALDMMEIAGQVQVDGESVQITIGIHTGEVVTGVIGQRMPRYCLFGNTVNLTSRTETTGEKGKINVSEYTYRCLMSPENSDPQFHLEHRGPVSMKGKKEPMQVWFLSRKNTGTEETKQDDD
As to the kind of experiment: Cell-based sGC functional assay (CASA assay): cGMP generation in CHO-K1/sGC cells, HTRF detection. The settings on record: for Emax: CHO-K1, percent activation relative to standard Compound A in CHO-K1/sGC cells, read-out: % Act.; for EC50: inflection point (IP) of cGMP generation in CHO-K1/sGC cells, 4P fit, activity expressed as percentage of Compound A. In a few lines:
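cGMP was quantified by HTRF after 1 hr, 37° C exposure of thawed CHO-K1 cells expressing sGC α1/β1 to compound, with or without 1 μM DETA-NO. IBMX (0.5 mM) blocked cGMP breakdown, and DMSO was 2.5% final. Percent of standard Compound A's maximal cGMP was fitted (4P) for inflection point.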

`CC1(c2ccc(Cl)cc2)C(=O)Nc2nc(-c3cn4ccnc4cn3)nc(NCCCC(F)(F)F)c21` (stereo not drawn) [Example 285A, 5-(4-chlorophenyl)-2-(imidazo[1,2-a]pyrazin-6-yl)-5-methyl-4-((4,4,4-trifluorobutyl)amino)-5H-pyrrolo[2,3-d]pyrimidin-6(7H)-one]: the Emax was determined as 130% and a half-maximal response (EC50) required 20 nM.
For the compound `CC1(c2ccc(Cl)cc2)C(=O)Nc2nc(-c3cn4ccnc4cn3)nc(NC3CC(F)(F)C3)c21` (stereo not drawn) [Example 287A, 5-(4-chlorophenyl)-4-((3,3-difluorocyclobutyl)amino)-2-(imidazo[1,2-a]pyrazin-6-yl)-5-methyl-5H-pyrrolo[2,3-d]pyrimidin-6(7H)-one], the Emax came out at 133% and the EC50 is 376 nM.
Taken in the same sequence, the figures for `CC1(c2ccc(Cl)cc2)C(=O)Nc2nc(-c3cn4ccnc4cn3)nc(NCC(F)(F)F)c21` (stereo not drawn) [Example 288A, 5-(4-chlorophenyl)-2-(imidazo[1,2-a]pyrazin-6-yl)-5-methyl-4-((2,2,2-trifluoroethyl)amino)-5H-pyrrolo[2,3-d]pyrimidin-6(7H)-one] were 119% and 12 nM.
Taken in the same sequence, the figures for `CC1(c2ccc(Cl)cc2)C(=O)Nc2nc(-c3cn4ccnc4cn3)nc(NCCC(F)(F)F)c21` (stereo not drawn) [Example 289A, 5-(4-chlorophenyl)-2-(imidazo[1,2-a]pyrazin-6-yl)-5-methyl-4-((3,3,3-trifluoropropyl)amino)-5H-pyrrolo[2,3-d]pyrimidin-6(7H)-one] were 106% and 289 nM.
Taken in the same sequence, the figures for `CN(C)c1nc(-c2cn3ccnc3c(CCC(F)(F)C(F)(F)F)n2)nc2c1C(C)(c1ccc(F)cn1)C(=O)N2` (stereo not drawn) [Example 291B, 4-(dimethylamino)-5-(5-fluoropyridin-2-yl)-5-methyl-2-(8-(3,3,4,4,4-pentafluorobutyl)imidazo[1,2-a]pyrazin-6-yl)-5H-pyrrolo[2,3-d]pyrimidin-6(7H)-one] were 126% and 786 nM.
As for `CC1(c2ccc(F)cn2)C(=O)Nc2nc(-c3cn4ccnc4c(CCC(F)(F)C(F)(F)F)n3)nc(NC3CC3)c21` (stereo not drawn) [Example 292B, 4-(cyclopropylamino)-5-(5-fluoropyridin-2-yl)-5-methyl-2-(8-(3,3,4,4,4-pentafluorobutyl)imidazo[1,2-a]pyrazin-6-yl)-5H-pyrrolo[2,3-d]pyrimidin-6(7H)-one], the Emax turned out to be 148% and the EC50 was found to be 951 nM.
Take `COCCNc1nc(-c2cn3ccnc3c(CCC(F)(F)C(F)(F)F)n2)nc2c1C(C)(c1ccc(F)cn1)C(=O)N2` (stereo not drawn) [Example 293B, 5-(5-fluoropyridin-2-yl)-4-((2-methoxyethyl)amino)-5-methyl-2-(8-(3,3,4,4,4-pentafluorobutyl)imidazo[1,2-a]pyrazin-6-yl)-5H-pyrrolo[2,3-d]pyrimidin-6(7H)-one]: the Emax stood at 107% and the EC50 came out at 509 nM.
Taken in the same sequence, the figures for `CC1(c2ccc(F)cn2)C(=O)Nc2nc(-c3cn4ccnc4c(CCC(F)(F)C(F)(F)F)n3)nc(N3CCOCC3)c21` (stereo not drawn) [Example 294B, 5-(5-fluoropyridin-2-yl)-5-methyl-4-morpholino-2-(8-(3,3,4,4,4-pentafluorobutyl)imidazo[1,2-a]pyrazin-6-yl)-5H-pyrrolo[2,3-d]pyrimidin-6(7H)-one] were 89% and 444 nM.
Taken in the same sequence, the figures for `CN1CCN(c2nc(-c3cn4ccnc4c(CCC(F)(F)C(F)(F)F)n3)nc3c2C(C)(c2ccc(F)cn2)C(=O)N3)CC1` (stereo not drawn) [Example 295B, 5-(5-fluoropyridin-2-yl)-5-methyl-4-(4-methylpiperazin-1-yl)-2-(8-(3,3,4,4,4-pentafluorobutyl)imidazo[1,2-a]pyrazin-6-yl)-5H-pyrrolo[2,3-d]pyrimidin-6(7H)-one] were 96% and 671 nM.
For the compound `COCCNc1nc(-c2cn3ccnc3c(CCC(F)(F)F)n2)nc2c1C(C)(c1ccc(Cl)cc1)C(=O)N2` (stereo not drawn) [Example 296A, 5-(4-chlorophenyl)-4-((2-methyoxyethyl)amino)-5-methyl-2-(8-(3,3,3-trifluoropropyl)imidazo[1,2-a]pyrazin-6-yl)-5H-pyrrolo[2,3-d]pyrimidin-6(7H)-one], the Emax came to 77% and a half-maximal response (EC50) required 142 nM.
Taken in the same sequence, the figures for `CC1(c2ccc(Cl)cc2)C(=O)Nc2nc(-c3cn4ccnc4c(CCC(F)(F)F)n3)nc(N3CCOCC3)c21` (stereo not drawn) [Example 297A, 5-(4-chlorophenyl)-5-methyl-4-morpholino-2-(8-(3,3,3-trifluoropropyl)imidazo[1,2-a]pyrazin-6-yl)-5H-pyrrolo[2,3-d]pyrimidin-6(7H)-one] were 101% and 466 nM.
Taken in the same sequence, the figures for `CCOC(=O)CCNc1nc(-c2cn3ccnc3c(CCC(F)(F)F)n2)nc2c1C(C)(c1ccc(Cl)cc1)C(=O)N2` (stereo not drawn) [Example 298A, ethyl 3-((5-(4-chlorophenyl)-5-methyl-6-oxo-2-(8-(3,3,3-trifluoropropyl)imidazo[1,2-a]pyrazin-6-yl)-6,7-dihydro-5H-pyrrolo[2,3-d]pyrimidin-4-yl)amino)propanoate] were 114% and 121 nM.
For the compound `CC1(c2ccc(F)cc2)C(=O)Nc2nc(-c3cn4ccnc4c(CCC(F)(F)C(F)(F)F)n3)nc(N3CCN(S(C)(=O)=O)CC3)c21` (stereo not drawn) [Example 299A, 5-(4-fluorophenyl)-5-methyl-4-(4-(methylsulfonyl)piperazin-1-yl)-2-(8-(3,3,4,4,4-pentafluorobutyl)imidazo[1,2-a]pyrazin-6-yl)-5H-pyrrolo[2,3-d]pyrimidin-6(7H)-one], the Emax was 114% and the EC50 was 624 nM.
On to `CC1(c2ccc(F)cc2)C(=O)Nc2nc(-c3cn4ccnc4c(CCC(F)(F)C(F)(F)F)n3)nc(N3CCSCC3)c21` (stereo not drawn) [Example 300A, 5-(4-fluorophenyl)-5-methyl-2-(8-(3,3,4,4,4-pentafluorobutyl)imidazo[1,2-a]pyrazin-6-yl)-4-thiomorpholine-5H-pyrrolo[2,3-d]pyrimidin-6(7H)-one], for which the Emax was found to be 136% and the response was half-maximal at 492 nM (EC50).
As to `CC1(c2ccc(F)cc2)C(=O)Nc2nc(-c3cn4ccnc4c(CCC(F)(F)C(F)(F)F)n3)nc(N3CCCC3)c21` (stereo not drawn) [Example 301A, 5-(4-fluorophenyl)-5-methyl-2-(8-(3,3,4,4,4-pentafluorobutyl)imidazo[1,2-a]pyrazin-6-yl)-4-(pyrrolidin-1-yl)-5H-pyrrolo[2,3-d]pyrimidin-6(7H)-one], the Emax was found to be 116% and the response was half-maximal at 317 nM (EC50).
In the case of `CC1(C)CN(c2nc(-c3cn4ccnc4c(CCC(F)(F)C(F)(F)F)n3)nc3c2C(C)(c2ccc(F)cc2)C(=O)N3)C1` (stereo not drawn) [Example 302A, 4-(3,3-dimethylazetidin-1-yl)-5-(4-fluorophenyl)-5-methyl-2-(8-(3,3,4,4,4-pentafluorobutyl)imidazo[1,2-a]pyrazin-6-yl)-5H-pyrrolo[2,3-d]pyrimidin-6(7H)-one], the Emax stood at 105% and the EC50 was found to be 551 nM.
Consider `C[C@@H]1CN(c2nc(-c3cn4ccnc4c(CCC(F)(F)C(F)(F)F)n3)nc3c2C(C)(c2ccc(F)cc2)C(=O)N3)C[C@H](C)O1` (stereo partly drawn) [Example 303A, 4-((2R,6S)-2,6-dimethylmorpholino)-5-(4-fluorophenyl)-5-methyl-2-(8-(3,3,4,4,4-pentafluorobutyl)imidazo[1,2-a]pyrazin-6-yl)-5H-pyrrolo[2,3-d]pyrimidin-6(7H)-one], for which the Emax is 101% and a half-maximal effect (EC50) was put at 425 nM.
Taken in the same sequence, the figures for `CC1(C)CN(c2nc(-c3cn4ccnc4c(CCC(F)(F)C(F)(F)F)n3)nc3c2C(C)(c2ccc(F)cc2)C(=O)N3)CCO1` (stereo not drawn) [Example 304A, 4-(2,2-dimethylmorpholino)-5-(4-fluorophenyl)-5-mehtyl-2-(8-(3,3,4,4,4-pentafluorobutyl)imidazo[1,2-a]pyrazin-6-yl)-5H-pyrrolo[2,3-d]pyrimidin-6(7H)-one] were 89% and 415 nM.
